Source: the NIST ThermoML archive (doi:10.1021/je200922s)

Test: xn = mol fraction of the nth substance listed
Details: 101 kPa, Liquid; for viscosity: Capillary tube (Ostwald / Ubbelohde) method; for mass density: Vibrating tube method

CCn1cc[n+](C)c1.O=S(=O)([N-]S(=O)(=O)C(F)(F)F)C(F)(F)F + CCO
Details | mass density [kg/m3] | viscosity [mPa·s]
293.15 K, x1 = 0.1008 | 1038.4 | 1.612
293.15 K, x1 = 0.1971 | 1179.41 | 2.78
293.15 K, x1 = 0.3 | 1276.68 | 4.6
293.15 K, x1 = 0.3992 | 1341.77 | 7.429
293.15 K, x1 = 0.5014 | 1391.85 | 10.65
293.15 K, x1 = 0.5955 | 1427.56 | 13.87
293.15 K, x1 = 0.6966 | 1458.64 | 17.76
293.15 K, x1 = 0.7982 | 1484.18 | 21.8
293.15 K, x1 = 0.9041 | 1506.32 | 28.74
298.15 K, x1 = 0.1008 | 1034.14 | 1.478
298.15 K, x1 = 0.1971 | 1175.21 | 2.35
298.15 K, x1 = 0.3 | 1272.19 | 4.15
298.15 K, x1 = 0.3992 | 1337.18 | 6.479
298.15 K, x1 = 0.5014 | 1387.12 | 9.232
298.15 K, x1 = 0.5955 | 1422.72 | 12.05
298.15 K, x1 = 0.6966 | 1453.69 | 15.18
298.15 K, x1 = 0.7982 | 1479.17 | 18.7
298.15 K, x1 = 0.9041 | 1501.31 | 24.52
303.15 K, x1 = 0.1008 | 1029.79 | 1.25
303.15 K, x1 = 0.1971 | 1170.59 | 2.16
303.15 K, x1 = 0.3 | 1267.5 | 3.728
303.15 K, x1 = 0.3992 | 1332.39 | 5.697
303.15 K, x1 = 0.5014 | 1382.49 | 8.1
303.15 K, x1 = 0.5955 | 1417.99 | 10.31
303.15 K, x1 = 0.6966 | 1448.78 | 13.13
303.15 K, x1 = 0.7982 | 1474.28 | 16.12
303.15 K, x1 = 0.9041 | 1496.34 | 20.9
308.15 K, x1 = 0.1008 | 1025.12 | 1.12
308.15 K, x1 = 0.1971 | 1166.55 | 1.9
308.15 K, x1 = 0.3 | 1263.4 | 3.157
308.15 K, x1 = 0.3992 | 1327.88 | 5.055
308.15 K, x1 = 0.5014 | 1377.68 | 7.177
308.15 K, x1 = 0.5955 | 1413.41 | 9.109
308.15 K, x1 = 0.6966 | 1443.98 | 11.47
308.15 K, x1 = 0.7982 | 1469.4 | 14.04
308.15 K, x1 = 0.9041 | 1491.39 | 18.05
313.15 K, x1 = 0.1008 | 1021.47 | 1.101
313.15 K, x1 = 0.1971 | 1162.51 | 1.645
313.15 K, x1 = 0.3 | 1259.31 | 2.64
313.15 K, x1 = 0.3992 | 1323.62 | 4.404
313.15 K, x1 = 0.5014 | 1372.99 | 6.199
313.15 K, x1 = 0.5955 | 1408.57 | 7.954
313.15 K, x1 = 0.6966 | 1439.3 | 10.01
313.15 K, x1 = 0.7982 | 1464.39 | 12.34
313.15 K, x1 = 0.9041 | 1486.41 | 15.74
318.15 K, x1 = 0.1008 | 1019.1 | 1.001
318.15 K, x1 = 0.1971 | 1159.51 | 1.412
318.15 K, x1 = 0.3 | 1255.23 | 2.459
318.15 K, x1 = 0.3992 | 1319.8 | 3.945
318.15 K, x1 = 0.5014 | 1368.71 | 5.603
318.15 K, x1 = 0.5955 | 1404 | 7.141
318.15 K, x1 = 0.6966 | 1434.53 | 8.965
318.15 K, x1 = 0.7982 | 1459.6 | 10.93
318.15 K, x1 = 0.9041 | 1481.54 | 13.84
323.15 K, x1 = 0.1008 | 1015.54 | 0.987
323.15 K, x1 = 0.1971 | 1156.54 | 1.307
323.15 K, x1 = 0.3 | 1252.11 | 2.317
323.15 K, x1 = 0.3992 | 1316.24 | 3.656
323.15 K, x1 = 0.5014 | 1364.61 | 5.195
323.15 K, x1 = 0.5955 | 1399.5 | 6.5
323.15 K, x1 = 0.6966 | 1429.97 | 8.116
323.15 K, x1 = 0.7982 | 1454.97 | 9.799
323.15 K, x1 = 0.9041 | 1476.73 | 12.28

CCn1cc[n+](C)c1.O=S(=O)([N-]S(=O)(=O)C(F)(F)F)C(F)(F)F + CN1CCCC1=O
Details | mass density [kg/m3] | viscosity [mPa·s]
293.15 K, x1 = 0.0978 | 1144.09 | 3.344
293.15 K, x1 = 0.1979 | 1228.99 | 5.561
293.15 K, x1 = 0.2957 | 1292.83 | 8.637
293.15 K, x1 = 0.395 | 1344.49 | 12.04
293.15 K, x1 = 0.493 | 1386.31 | 15.84
293.15 K, x1 = 0.5893 | 1420.55 | 20.06
293.15 K, x1 = 0.6917 | 1451.44 | 24.72
293.15 K, x1 = 0.798 | 1478.94 | 29.72
293.15 K, x1 = 0.9002 | 1502.24 | 34.93
298.15 K, x1 = 0.0978 | 1139.45 | 3.026
298.15 K, x1 = 0.1979 | 1224.19 | 4.943
298.15 K, x1 = 0.2957 | 1287.87 | 7.604
298.15 K, x1 = 0.395 | 1339.44 | 10.45
298.15 K, x1 = 0.493 | 1381.19 | 13.6
298.15 K, x1 = 0.5893 | 1415.41 | 17.07
298.15 K, x1 = 0.6917 | 1446.29 | 20.87
298.15 K, x1 = 0.798 | 1473.78 | 24.7
298.15 K, x1 = 0.9002 | 1497.09 | 28.7
303.15 K, x1 = 0.0978 | 1134.72 | 2.754
303.15 K, x1 = 0.1979 | 1219.33 | 4.457
303.15 K, x1 = 0.2957 | 1282.91 | 6.749
303.15 K, x1 = 0.395 | 1334.42 | 9.159
303.15 K, x1 = 0.493 | 1376.09 | 11.82
303.15 K, x1 = 0.5893 | 1410.27 | 14.7
303.15 K, x1 = 0.6917 | 1441.15 | 17.85
303.15 K, x1 = 0.798 | 1468.63 | 21.05
303.15 K, x1 = 0.9002 | 1491.96 | 24.29
308.15 K, x1 = 0.0978 | 1130.03 | 2.519
308.15 K, x1 = 0.1979 | 1214.47 | 4.028
308.15 K, x1 = 0.2957 | 1277.97 | 6.033
308.15 K, x1 = 0.395 | 1329.38 | 8.092
308.15 K, x1 = 0.493 | 1371 | 10.37
308.15 K, x1 = 0.5893 | 1405.15 | 12.81
308.15 K, x1 = 0.6917 | 1436.01 | 15.44
308.15 K, x1 = 0.798 | 1463.48 | 18.24
308.15 K, x1 = 0.9002 | 1486.83 | 20.83
313.15 K, x1 = 0.0978 | 1125.31 | 2.314
313.15 K, x1 = 0.1979 | 1209.6 | 3.647
313.15 K, x1 = 0.2957 | 1272.99 | 5.43
313.15 K, x1 = 0.395 | 1324.28 | 7.19
313.15 K, x1 = 0.493 | 1365.88 | 9.174
313.15 K, x1 = 0.5893 | 1399.96 | 11.26
313.15 K, x1 = 0.6917 | 1430.83 | 13.44
313.15 K, x1 = 0.798 | 1458.28 | 15.76
313.15 K, x1 = 0.9002 | 1481.67 | 18.12
318.15 K, x1 = 0.0978 | 1120.61 | 2.13
318.15 K, x1 = 0.1979 | 1204.73 | 3.325
318.15 K, x1 = 0.2957 | 1268 | 4.916
318.15 K, x1 = 0.395 | 1319.23 | 6.44
318.15 K, x1 = 0.493 | 1360.77 | 8.18
318.15 K, x1 = 0.5893 | 1394.81 | 9.989
318.15 K, x1 = 0.6917 | 1425.65 | 11.83
318.15 K, x1 = 0.798 | 1453.09 | 13.78
318.15 K, x1 = 0.9002 | 1476.54 | 15.79
323.15 K, x1 = 0.0978 | 1115.91 | 1.98
323.15 K, x1 = 0.1979 | 1199.83 | 3.079
323.15 K, x1 = 0.2957 | 1262.96 | 4.481
323.15 K, x1 = 0.395 | 1314.12 | 5.816
323.15 K, x1 = 0.493 | 1355.62 | 7.344
323.15 K, x1 = 0.5893 | 1389.73 | 8.911
323.15 K, x1 = 0.6917 | 1420.58 | 10.51
323.15 K, x1 = 0.798 | 1448.03 | 12.31
323.15 K, x1 = 0.9002 | 1471.41 | 13.95
